For assay [1], the target named is T1, System Xc^− cystine/glutamate antiporter (Homo sapiens, UniProt Q9UPY5).
T1 sequence (Q9UPY5 1-501): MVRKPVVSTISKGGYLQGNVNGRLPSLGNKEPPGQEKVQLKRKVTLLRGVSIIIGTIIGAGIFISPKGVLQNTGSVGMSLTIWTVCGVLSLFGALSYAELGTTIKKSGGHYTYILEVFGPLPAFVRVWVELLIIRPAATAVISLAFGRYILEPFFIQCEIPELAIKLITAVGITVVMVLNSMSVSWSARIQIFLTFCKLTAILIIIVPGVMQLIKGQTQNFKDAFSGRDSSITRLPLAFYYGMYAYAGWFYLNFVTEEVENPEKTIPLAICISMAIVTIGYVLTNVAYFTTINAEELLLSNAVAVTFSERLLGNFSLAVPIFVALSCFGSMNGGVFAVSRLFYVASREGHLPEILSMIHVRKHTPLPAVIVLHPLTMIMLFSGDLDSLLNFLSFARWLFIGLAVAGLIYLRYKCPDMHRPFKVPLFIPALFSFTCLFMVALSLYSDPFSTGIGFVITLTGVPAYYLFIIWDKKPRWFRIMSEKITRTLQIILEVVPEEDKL
T1 sequence (P08195 1-529 partner): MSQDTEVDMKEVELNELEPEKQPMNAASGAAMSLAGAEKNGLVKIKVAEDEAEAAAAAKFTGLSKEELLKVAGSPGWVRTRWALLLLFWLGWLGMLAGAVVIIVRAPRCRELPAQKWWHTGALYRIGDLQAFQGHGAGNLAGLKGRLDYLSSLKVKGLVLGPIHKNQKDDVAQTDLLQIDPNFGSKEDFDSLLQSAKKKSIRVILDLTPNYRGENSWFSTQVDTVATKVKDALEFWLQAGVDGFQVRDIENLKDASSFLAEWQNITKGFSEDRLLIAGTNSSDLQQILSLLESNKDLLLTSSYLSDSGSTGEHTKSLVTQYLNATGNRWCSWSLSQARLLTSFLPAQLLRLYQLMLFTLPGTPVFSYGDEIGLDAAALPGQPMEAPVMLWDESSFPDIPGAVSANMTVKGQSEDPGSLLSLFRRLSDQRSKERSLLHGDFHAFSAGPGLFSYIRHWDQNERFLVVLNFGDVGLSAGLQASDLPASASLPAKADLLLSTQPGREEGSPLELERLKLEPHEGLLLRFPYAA
In words: [^14C]L-Cystine uptake assay. It counts as cell-based. The note with it: H4 cells, 15 min preincubation, 1 hour at 37° C., sodium-free HEPES buffer; read-out: [^14C] L-Cystine uptake assay (range of pIC50) (converted). From the text:
(§1) By measuring respectively, the concentration of glutamate released outside the cell and the L-cystine uptaken in the cell, with increasing concentrations of compounds of formula (I) according to the present invention, the efficacy of said compounds to inhibit the System Xc^− function can be evaluated.
(§2) The efficacy of the compounds to inhibit system Xc^− is represented by measuring the IC50 which corresponds to the concentration of compound necessary to inhibit 50% of the signals from the two control groups; DMSO 1% and Erastin 50 μM in the respective assays. pIC50 values correspond to −log of the IC50 in Molar.
In this assay, the medium is devoid of sodium to prevent the transport of glutamate by sodium-dependent excitatory amino acid transporters (EAATs). H4 cells were plated on a 96-well CytoStar-T scintillating microplate (PerkinElmer) at 5×10^4 cells/well in the medium described above. After 1 day, cells were washed one time with the sodium-free HEPES buffer and preincubated with test compounds of Formula (I) (1% final DMSO) for 15 min. Uptake was initiated by adding 0.5 μM L-[1,2, 1′,2′-^14C] Cystine (0.02 mCi/mL, PerkinElmer, Waltham, US) and 4.5 μM L-Cystine (Sigma-Aldrich). After 1 hour at 37° C., plates were counted in a MicroBeta^2 microplate counter (PerkinElmer).

In assay [2] the target is T1, System Xc^− cystine/glutamate antiporter. In words: Cystine-induced glutamate release assay. The assay is classed as cell-based. Particulars: H4 cells, 50 μM L-Cystine, 2 hours, sodium-free HEPES buffer; read-out: Cystine-induced glutamate release assay (range of pIC50) (converted). Details: endogenous in cells; host or cells: H4 cells.
Excerpt: as §1, §2
Measurement of cystine-induced glutamate release indicates levels of glutamate (outside of the cell) that are dependent on system Xc^− antiporter function. Upon the addition of L-Cystine to H4 cells, intracellular glutamate is counter-transported and exported in the supernatant.
In this assay, the medium is devoid of sodium to prevent the transport of glutamate by sodium-dependent excitatory amino acid transporters (EAATs). H4 cells were plated on 384-well culture plate at 1×10^4 cells/well in Dulbecco's Modified Eagle Medium (DMEM) with L-glutamine, penicillin/streptomycin and 10% fetal bovine serum (all from ThermoFisher Scientific) and incubated in a humidified CO2 incubator at 37° C. After 2 days, cells were washed 4 times with prewarmed sodium-free HEPES buffer (contents in mM: HEPES 10, KCl 5.4, CaCl2 2.5, MgCl2 1, KH2PO4 0.4, D-Glucose 5, Choline chloride 140), pH 7.4. Glutamate release was induced by addition of 50 μM of L-Cystine (Sigma-Aldrich), together with a test compound of Formula (I) at 1% final DMSO concentration. After 2 hours of incubation in the culture incubator, supernatants were transferred to a low-binding polypropylene 384-well plate to determine L-glutamate concentration using Amplex™ Red Glutamic Acid Assay Kit (ThermoFisher Scientific). Briefly, 10 μL of Amplex™ Red working solution was added to 10 μL of the supernatant, then the mixture was incubated for 30 min at 37° C. Fluorescence intensity was measured by EnVision microplate reader (PerkinElmer).

Molecules are shown by their SMILES.

`CC(=O)c1ccc(NC(=O)CN2C(=O)C(C)c3ncccc3-c3c2cc(C)nc3Cl)cc1` (single isomer, unassigned) [#6]: the IC50 in assay [1] and in assay [2] was < 15.8 nM each time.
As for `COc1cc2c(c(F)n1)-c1cccnc1C(C)C(=O)N2CC(=O)Nc1ccc(C(C)=O)cc1` (single isomer, unassigned) [#11], the IC50 in assay [1] and in assay [2] was 15.8 to 39.8 nM throughout.
As to `COc1cnc2c(c1)-c1cnc(C)cc1N(CC(=O)Nc1ccc(C(C)=O)cc1)C(=O)C2C` (single isomer, unassigned) [#12], the IC50 in assay [1] and in assay [2] was 39.8 to 100 nM in each case.
On to `COc1nc(C)cc2c1-c1cccnc1C(C)C(=O)N2CC(=O)Nc1ccc(C(C)=O)cc1` (single isomer, unassigned) [#13], for which the figures for the IC50 in assay [1] and in assay [2] were < 15.8 nM and 15.8 to 39.8 nM, respectively.
In the same order, the values of `COc1nccc2c1-c1cccnc1C(C)C(=O)N2CC(=O)Nc1ccc(C(C)=O)cc1` (single isomer, unassigned) [#14] are 15.8 to 39.8 nM and 39.8 to 100 nM.
In the same order, the values of `CC(=O)c1ccc(NC(=O)CN2C(=O)C(C)c3ncccc3-c3c2cc(C)nc3F)cc1O` (single isomer, unassigned) [#16] are < 15.8 nM and 15.8 to 39.8 nM.
In the same order, the values of `COc1cc2c(c(F)n1)-c1cc(F)cnc1C(C)C(=O)N2CC(=O)Nc1ccc(C(C)=O)cc1` (single isomer, unassigned) [#17] are < 15.8 nM and 39.8 to 100 nM.
For the compound `Cc1cc2c(c(F)n1)-c1cc(F)cnc1C(C)C(=O)N2CC(=O)Nc1ccc2c(c1)OCC2=O` (single isomer, unassigned) [#18], the IC50 in assay [1] and in assay [2] was 39.8 to 100 nM throughout.
Turning to `CC(=O)c1ccc(NC(=O)CN2C(=O)C(C)c3ncc(F)cc3-c3cc(C#N)c(C)cc32)cc1` (single isomer, unassigned) [#19], the IC50 in assay [1] was < 15.8 nM; in assay [2], 15.8 to 39.8 nM.
In the same order, the values of `COc1cnc2c(c1)-c1c(cc(C)nc1F)N(CC(=O)Nc1ccc(C(C)=O)cc1)C(=O)C2C` (single isomer, unassigned) [#20] are 15.8 to 39.8 nM and 39.8 to 100 nM.
In the same order, the values of `CC(=O)c1ccc(NC(=O)CN2C(=O)C(C)c3ncccc3-c3c2cc(F)nc3F)cc1` (single isomer, unassigned) [#23] are 39.8 to 100 nM and 39.8 to 100 nM.
In the same order, the values of `COc1cc2c(cn1)-c1cc(F)cnc1C(C)C(=O)N2CC(=O)Nc1ccc(C(C)=O)cc1` (single isomer, unassigned) [#32] are 15.8 to 39.8 nM and 100 to 501 nM.
On to `CC(=O)c1ccc(NC(=O)CN2C(=O)C(C)c3ncc(F)cc3-c3c2cc(C)nc3F)cc1O` (single isomer, unassigned) [#33], for which the IC50 in assay [1] and in assay [2] was < 15.8 nM each time.
For `CC(=O)c1ccc(NC(=O)CN2C(=O)[C@H](C)c3ncccc3-c3c2cc(C)nc3F)cc1` [#1], the IC50 in assay [1] and in assay [2] was 15.8 to 39.8 nM throughout.
On to `Cc1cc2c(c(F)n1)-c1cccnc1[C@@H](C)C(=O)N2CC(=O)Nc1ccc(C(=O)C2CC2)cc1` [#2], for which the IC50 in assay [1] and in assay [2] was 100 to 501 nM each time.
Take `CC(=O)c1ccc(NC(=O)CN2C(=O)[C@H](C)c3ncc(F)cc3-c3c2cc(C)nc3F)cc1` [#3]: the IC50 in assay [1] and in assay [2] was 15.8 to 39.8 nM each time.
As for `CC(=O)c1ccc(NC(=O)CN2C(=O)C(C)c3ncc(F)cc3-c3cnc(C)cc32)cc1` (stereo not drawn) [#4], the IC50 in assay [1] and in assay [2] was 39.8 to 100 nM in each case.
Take `CC(=O)c1ccc(NC(=O)CN2C(=O)[C@H](C)c3ncc(F)cc3-c3c2cc(C)nc3Cl)cc1` [#5]: the IC50 in assay [1] and in assay [2] was < 15.8 nM throughout.
For `CC(=O)c1ccc(NC(=O)CN2C(=O)C(C)c3ncccc3-c3c2cc(N2CC(F)(F)C2)nc3F)cc1` (stereo not drawn) [#7], the IC50 in assay [1] is < 15.8 nM; in assay [2] it was 39.8 to 100 nM.
For the compound `CC(=O)c1ccc(NC(=O)CN2C(=O)C(C)c3ncccc3-c3c2cc(N2CC(F)C2)nc3F)cc1` (stereo not drawn) [#8], the IC50 in assay [1] and in assay [2] was < 15.8 nM throughout.
With `CC(=O)c1ccc(NC(=O)CN2C(=O)Cc3ncccc3-c3c2cc(N2CC4(C2)CC4(F)F)nc3Cl)cc1` [#9], the IC50 is 39.8 to 100 nM in assay [1] and 100 to 501 nM in assay [2].
In the same order, the values of `CC(=O)c1ccc(NC(=O)CN2C(=O)Cc3ccccc3-c3c2cc(C)nc3F)cc1` [#10] are 39.8 to 100 nM and 100 to 501 nM.
As for `CCC(=O)c1ccc(NC(=O)CN2C(=O)[C@H](C)c3ncccc3-c3c2cc(C)nc3F)cc1` [#15], the IC50 in assay [1] and in assay [2] was 39.8 to 100 nM each time.
Regarding `CC(=O)c1ccc(NC(=O)CN2C(=O)Cc3ncccc3-c3c2cc(N2CC(F)C2)nc3F)cc1` [#21], the values for the IC50 in assay [1] and in assay [2] were < 15.8 nM and 15.8 to 39.8 nM, respectively.
With `CC(=O)c1ccc(NC(=O)CN2C(=O)Cc3ncccc3-c3c2cc(N2CC(F)(F)C2)nc3F)cc1` [#22], the IC50 in assay [1] was 15.8 to 39.8 nM; in assay [2], 39.8 to 100 nM.
In the same order, the values of `CC(=O)c1ccc(NC(=O)CN2C(=O)C(C)c3ncccc3-c3c2cc(C)nc3F)cc1F` (stereo not drawn) [#24] are 15.8 to 39.8 nM and 39.8 to 100 nM.
In the same order, the values of `CC(=O)c1ccc(NC(=O)CN2C(=O)C(C)c3ncccc3-c3c2cc(N2CC(C)(O)C2)nc3F)cc1` (stereo not drawn) [#25] are 15.8 to 39.8 nM and 39.8 to 100 nM.
In the same order, the values of `CC(=O)c1ccc(NC(=O)CN2C(=O)C(C)c3ncccc3-c3c2cc(N2CC(C)(F)C2)nc3F)cc1` (stereo not drawn) [#26] are 15.8 to 39.8 nM and 100 to 501 nM.
Turning to `CC(=O)c1ccc(NC(=O)CN2C(=O)Cc3ncccc3-c3c2cc(N2CC(C)(O)C2)nc3F)cc1` [#27], the IC50 was 15.8 to 39.8 nM in assay [1] and 39.8 to 100 nM in assay [2].
With `CC(=O)c1ccc(NC(=O)CN2C(=O)C(C)c3nscc3-c3c2cc(C)nc3F)cc1` (stereo not drawn) [#28], the figures for the IC50 in assay [1] and in assay [2] were 100 to 501 nM and 39.8 to 100 nM, respectively.
In the same order, the values of `CC(=O)c1ccc(NC(=O)CN2C(=O)C(C)c3ncccc3-c3c2cc(C2(O)CCC2)nc3F)cc1` (stereo not drawn) [#29] are 39.8 to 100 nM and 39.8 to 100 nM.
In the same order, the values of `CC(=O)c1ccc(NC(=O)CN2C(=O)C(C)c3ncc(F)cc3-c3c2cc(CO)nc3F)cc1` (stereo not drawn) [#30] are 100 to 501 nM and 100 to 501 nM.
`CC(=O)c1ccc(NC(=O)CN2C(=O)C(C)c3ncccc3-c3c2cc(C2CCC2)nc3F)cc1` (stereo not drawn) [#31]: the IC50 in assay [1] and in assay [2] was 15.8 to 39.8 nM in each case.

(Values after patent US20260226057A1, “TRICYCLIC AZEPINONE DERIVATIVES AS SYSTEM XC INHIBITORS” (UCB BIOPHARMA SRL, priority 2023, published 2026).)
